The values below come from the METLIN SMRT retention time set (Domingo-Almenara et al. 2019).

This data set is described as follows: gradient 5% acetonitrile 3 min, to 50% in 2 min, to 85% in 15 min, held 3 min, 100 µL/min. As to conditions: column: Zorbax Extend-C18 2.1 x 50 mm; eluents: water / acetonitrile, 0.1% formic acid. The method in brief: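 In both positive and negative ionization mode, a quadrupole time-of-flight mass spectrometer coupled to HPLC analyzed pure standards run in mixtures of ~100 molecules. The Zorbax Extend-C18 column (2.1 × 50 mm, 1.8 μm) was operated at 100 μL/min with water and acetonitrile, each containing 0.1% formic acid. The dead volume was 40 μL and the dwell volume 900 μL. Retention time came from adduct peaks that were computationally picked and individually inspected by hand.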
`Cc1ccc(NC(=O)Cn2c(=O)n(-c3ccccc3)c3ncccc32)cc1C` registered an RP-LC retention time of 906 s.

In turn, `COc1cccc(C(=O)N2C[C@@H]3C[C@H](NC(=O)c4cccnc4)[C@H]2C3)c1OC` registered an RP-LC retention time of 619 s.

Regarding `COc1cc(-c2cc(C(=O)O)c3cc4c(cc3n2)OCCO4)cc(OC)c1OC`, the RP-LC retention time is 676 s.

Regarding `Cc1ccccc1NC(=O)CSc1nnc2c3cc(-c4ccccc4)nn3ccn12`, the RP-LC retention time is 841 s.

In turn, `CCN1CCN(c2ccc(NC(=O)c3ccc(C(F)(F)F)cc3)cn2)C1=O` showed an RP-LC retention time of 823 s.

For the molecule `O=C(c1ccc(F)cc1)N1CCCC1c1nc(-c2ccccc2)n[nH]1` (stereo unspecified), the RP-LC retention time is 726 s.

`O=C(Nc1cc(-c2cccs2)nn1CCO)C1COc2ccccc2O1` (stereo unspecified) displayed an RP-LC retention time of 784 s.

On to `COc1cc(-c2noc(Cn3nc(-c4ccc(Br)cc4)ccc3=O)n2)cc(OC)c1OC`, for which the RP-LC retention time was 1020 s.

Molecule `CCn1nccc1C(=O)NCC1Cn2cccc2C(=O)N1C` (stereo unspecified) registered an RP-LC retention time of 605 s.

For the molecule `CC1(C)CS(=O)(=O)N(c2cccc(C(=O)N3CCN(c4ccccn4)CC3)c2)C1=O`, the RP-LC retention time worked out at 608 s.

Molecule `Cc1ccccc1CNC(=O)C1CCCN(S(=O)(=O)c2c[nH]c(C(=O)N3CCCC3)c2)C1` (stereo unspecified) gave an RP-LC retention time of 877 s.

Consider `CCOCCCNC(=O)CCc1nnc2ccc(-c3ccc(C)c(C)c3)nn12`, for which the RP-LC retention time was 754 s.

`Fc1ccc(OCc2nc(C3CCCN3)no2)cc1` (stereo unspecified): the RP-LC retention time was determined as 564 s.

Take `CCSc1nnc(NC(=O)CCCn2nc(-c3ccc(OC)cc3)ccc2=O)s1`: the RP-LC retention time turned out to be 730 s.

Turning to `O=C(NCCN1CCOCC1)c1cccc(Nc2c(-c3ccc(Cl)cc3)nc3cnccn23)c1`, the RP-LC retention time was found to be 599 s.

For the molecule `CCOc1cccc(-c2noc(-c3nn(-c4cccc(OC)c4)ccc3=O)n2)c1`, the RP-LC retention time was found to be 968 s.

In the case of `Cc1cc(C)c(C(=O)N2CCC(CC(=O)NCc3ccc4c(c3)OCO4)CC2)[nH]1`, the RP-LC retention time amounted to 724 s.

Molecule `CC(C)n1cnc2cc(CNC(=O)Cc3ccsc3)ccc21` came in with an RP-LC retention time of 582 s.

`c1ccc(-c2nc(-c3ccnc(N4CCCC4)c3)no2)nc1` registered an RP-LC retention time of 594 s.

In the case of `CCOC(=O)C1CCc2sc(NC(=O)Cc3sc(C)nc3C)nc21` (stereo unspecified), the RP-LC retention time turned out to be 639 s.

Regarding `O=C(Cn1ccc2ccccc21)NCCCC(=O)Nc1cccc2cccnc12`, the RP-LC retention time turned out to be 786 s.

Molecule `Cc1ccccc1NC(=O)N1CCN(c2nc(N3CCOCC3)nc(-n3ccnc3)n2)CC1` yielded an RP-LC retention time of 603 s.

Take `CC(C)(C)c1nnc(NC(=O)C2CCN(C(=O)c3ccc(F)cc3)CC2)s1`: the RP-LC retention time is 776 s.

The molecule `CCc1ccc(Nc2nc(C(=O)NCCCOC)nc3ccccc23)cc1` gave an RP-LC retention time of 750 s.

On to `CCn1cc(S(=O)(=O)Nc2ccc(C)cc2C)c2cccnc21`, for which the RP-LC retention time was 900 s.

Regarding `CC(C)CNC(=O)c1ccn[nH]1`, the RP-LC retention time was determined as 604 s.

Regarding `Cc1cccc(N2C(=O)c3cccnc3C2CC(=O)N2CCN(c3ccccn3)CC2)c1` (stereo unspecified), the RP-LC retention time was determined as 562 s.

For the molecule `Cc1nn(CC(=O)O)c(=O)c2nc(-c3ccccc3)sc12`, the RP-LC retention time worked out at 701 s.

Consider `Cc1ccc(-c2nc(CN3CCN(C(=O)NC4CCCC4)CC3)c(C)o2)cc1`, for which the RP-LC retention time came out at 677 s.

Molecule `CCn1ccc2sc(C)c(C(=O)NCc3ccc(SC)cc3)c2c1=O` had an RP-LC retention time of 866 s.

The molecule `CCN1CCN(C(=O)c2sc(-c3cn(C(C)C)c4ncccc34)nc2C)CC1` came in with an RP-LC retention time of 612 s.

Turning to `Cc1ccc(-c2nnc(-c3ccccc3Cl)o2)cc1S(=O)(=O)N1CCCCC1`, the RP-LC retention time amounted to 1200 s.

In turn, `Cc1ccc(C2CC(=O)N(c3ccc(F)cc3F)C(=O)C2)cc1` showed an RP-LC retention time of 987 s.

Take `CCC(C)NC(=O)c1ccc2c(c1)CC(=O)N2C` (stereo unspecified): the RP-LC retention time amounted to 644 s.

`Cc1cc(-c2nnc(-c3ccccc3)o2)c(C)n1CC(=O)NCc1ccccc1` came in with an RP-LC retention time of 903 s.

On to `CCc1ccc(Nc2nc(C(=O)NCCOC)nc3ccccc23)cc1`, for which the RP-LC retention time is 748 s.

In turn, `FC(F)(F)c1cccc(CN2CCCN(c3ncccc3-c3nc(C4CC4)no3)CC2)c1` yielded an RP-LC retention time of 765 s.

`N#Cc1cnc2ccc(F)cc2c1N1CCC(C(=O)N2CCSCC2)CC1` registered an RP-LC retention time of 766 s.

`O=C1C2N=NN(Cc3nc(-c4cccc(C(F)(F)F)c4)no3)C2C(=O)N1c1ccc2c(c1)CCC2` (stereo unspecified) displayed an RP-LC retention time of 1170 s.

For `CC1CCCN(c2ccc(NC(=O)c3cccs3)cc2C(=O)O)C1` (stereo unspecified), the RP-LC retention time was 666 s.

For the molecule `Cc1nc(NC(=O)c2ccc(F)cc2)nc2cc3c(cc12)OCO3`, the RP-LC retention time is 705 s.

In turn, `CCc1nc2cc(-c3noc(-c4ccccc4F)n3)ccc2o1` yielded an RP-LC retention time of 1140 s.

For `CN1CCn2cc(S(=O)(=O)Nc3cccc(F)c3)cc2C1=O`, the RP-LC retention time was found to be 687 s.

`COc1cccc(NC(=O)C2(C)CCCCC(=O)N2)c1` (stereo unspecified) showed an RP-LC retention time of 601 s.

On to `CC1CCN(S(=O)(=O)c2ccc3c(c2)CCCC(=O)N3CC(=O)Nc2ccccc2)CC1`, for which the RP-LC retention time amounted to 958 s.

In turn, `CO[C@H]1C(=O)N(C(C)C)[C@H]1C1CCN(C(=O)CCn2cc(C)cn2)CC1` showed an RP-LC retention time of 654 s.

For `CC1=C(c2ccc(C(C)C)cc2)S(=O)(=O)N=C1N1CCC(C(=O)NCc2ccco2)CC1`, the RP-LC retention time was 939 s.

Molecule `CCC1(C(=O)NCCCN2CCc3ccccc3C2)CCCCC(=O)N1` (stereo unspecified) registered an RP-LC retention time of 582 s.

With `COCC1CN(C2CCC2)CC12CCN(C(=O)C1CCN(C(C)=O)CC1)CC2` (stereo unspecified), the RP-LC retention time came out at 561 s.

On to `CN1C(=O)COc2cc(-c3noc(C(=O)N4CCCCCC4)n3)ccc21`, for which the RP-LC retention time is 919 s.

For `O=C(Nc1ccc(F)cc1F)c1noc2c1CCCC2`, the RP-LC retention time stood at 883 s.

`CCC(C)(C)C(=O)N1CCCC(c2nc(CCNC(=O)C(C)C)cs2)C1` (stereo unspecified) yielded an RP-LC retention time of 783 s.

`O=C(Nc1ccc(Cl)cc1)C(=O)c1cn(CC(=O)N2CCCC2)c2ccccc12` came in with an RP-LC retention time of 1020 s.

`COc1cc(C(=O)N2CCCC2c2nc(-c3ccccc3Cl)no2)cc(OC)c1OC` (stereo unspecified) returned an RP-LC retention time of 906 s.

With `Cc1csc(-c2cc(S(=O)(=O)Nc3ccc(S(N)(=O)=O)cc3)c(C)s2)n1`, the RP-LC retention time was found to be 797 s.

The molecule `COc1ccc(NC(=O)c2c[nH]c3ncccc23)c(C)c1` displayed an RP-LC retention time of 657 s.

In the case of `OCCNCc1ccc(-c2cccc(Cl)c2)o1`, the RP-LC retention time came to 987 s.

`COc1ccc(Nc2c(-c3ccc(N(C)C)cc3)nc3cnccn23)cc1` gave an RP-LC retention time of 740 s.

In the case of `Cc1cc(NC(=O)Cn2c(=O)cc(-c3nc(C4CC4)no3)c3ccccc32)ccc1F`, the RP-LC retention time is 998 s.

`CCC(C)N(CCNC(=O)c1cc(C)nn1-c1ccccc1)C1CCCCC1` (stereo unspecified) yielded an RP-LC retention time of 684 s.

Molecule `COc1cccc2c1ccn2CCNC(=O)C1CC(=O)N(c2n[nH]c3ccccc23)C1` (stereo unspecified) yielded an RP-LC retention time of 722 s.

On to `O=C(Cn1nc2c3ccc(F)cc3ncn2c1=O)NCc1ccc(F)cc1`, for which the RP-LC retention time came out at 668 s.

Molecule `CC(C)c1ccc(Sc2ccc(N3CCC(C(=O)NCCCO)CC3)nn2)cc1` came in with an RP-LC retention time of 703 s.

The molecule `Cc1ccccc1C1CCCN1C(=O)c1nn(C)cc1Cl` (stereo unspecified) returned an RP-LC retention time of 849 s.

For the molecule `COc1cc(NC(=O)C2CCCN(c3cnc4nccnc4c3)C2)cc(OC)c1` (stereo unspecified), the RP-LC retention time amounted to 712 s.

`COc1ccc(NS(=O)(=O)c2cc(-c3cc(C(F)(F)F)on3)sc2C)cc1` registered an RP-LC retention time of 1120 s.

The molecule `Cc1ccc(C(=O)N2CCCC(COc3ccc(C(=O)NC(C)C)cc3)C2)cc1C` (stereo unspecified) showed an RP-LC retention time of 931 s.

`CC(=O)N1CCc2nn(CC(=O)N3CCN(c4ccccc4F)CC3)c(=O)cc2C1` showed an RP-LC retention time of 652 s.

`CCC(C)NC(=O)c1ccc(-c2cccs2)nc1` (stereo unspecified) displayed an RP-LC retention time of 816 s.

Molecule `CCN1CCn2cc(C(=O)NCc3cccc(Br)c3)nc2C1` yielded an RP-LC retention time of 600 s.

Turning to `CC1CCN(c2nc(-c3ccc(Br)cc3)nc3ccccc23)CC1`, the RP-LC retention time is 955 s.

Molecule `CCOc1ccc(-c2noc(Cn3ccnc3)n2)cc1` came in with an RP-LC retention time of 635 s.

On to `Cc1cc(N2C(=O)CCS2(=O)=O)cc(C)c1S(=O)(=O)N1CCC(C(N)=O)CC1`, for which the RP-LC retention time amounted to 648 s.

For `Cc1ccnc(Nc2ccc(NCCNS(=O)(=O)Cc3ccccc3)nn2)c1`, the RP-LC retention time came out at 570 s.

As for `Cc1cc(C(=O)N2CCC(c3noc(-c4ccncc4)n3)C2)nn1C` (stereo unspecified), the RP-LC retention time stood at 661 s.

Consider `Cc1cccc(-c2nc(Cn3nnc(-c4nc(-c5ccccc5)no4)c3C)c(C)o2)c1`, for which the RP-LC retention time was found to be 1280 s.

On to `Cc1ccoc1C(=O)N[C@@H]1CN(c2ncccn2)C[C@H]1CO`, for which the RP-LC retention time came to 588 s.

The molecule `Cc1cc(C)c(S(=O)(=O)N(Cc2ccsc2)Cc2ccccn2)c(C)c1` returned an RP-LC retention time of 1030 s.

`O=C(CSc1nc(N2CCCCC2)nc2ccccc12)Nc1ccc(Br)cc1` came in with an RP-LC retention time of 810 s.

As to `Nc1cc(C2CCN(C(=O)c3nccc4ccccc34)CC2)no1`, the RP-LC retention time amounted to 647 s.

For the molecule `COc1ccc(-c2nnc(-c3cccnc3NCc3ccc(OC)c(OC)c3)o2)cc1`, the RP-LC retention time was 1060 s.
